Several values for one entry are separate records, joined by “and”; a condition that tells them apart may be missing. Equal values may be shown once.
Columns and labels:
ovariectomized rats = experiment: Bone loss in ovariectomized rats, densitometric and morphometric studies; assay type: in vivo, rat
Experimental: Four lots of 120-day-old female Wistar rats (mean±SD initial weight 273±28 g) were used. The rats were randomized into groups based on their body weight. […] Sample size was calculated in a pilot study after determining the variability of densitometric measurements.
All rats were fed standard chow feed containing 7.1 g/kg of calcium and 5 g/kg of phosphorus; the energy content of the feed was 3100 kcal/kg. A control group of 15 rats were not manipulated but fed the stud diet (control group, mean initial weight 269±31 g). A experimental group of 15 rats was ovariectomized at 120 days of life and given oxytocin for 10 days 1.0 mg/kg sc. (OVX+Oxy group, mean initial weight 277±32 g). A group of 15 rats underwent ovariectomy (OVX group, mean initial weight 282±27 g). […] The ovariectomy was performed as in previous studies [Rico H, Amo C, Revilla M, Arribas I, Gonzalez-Riola J, Villa L F, Rodriguez-Puyol M Etidronate versus Clodronate in the prevention of postovariectomy bone loss. An experimental study in rats. Clin Exp Rheumatol 1994, 12:301-304]. The manipulated rats were controlled to observe the development of intestinal function, alterations, and infection or dehiscence of surgical sutures. All rats received water ad libitum. The rats were kept for 30 days in the animal laboratory of department of Physiology and Pharmacology, Karolinska Institutet Living conditions (12 hours of light and 12 hours of darkness; mean room temperature 22° C.), habitat, and diet met current guidelines of the European Union. Weight was measured with a precision biomedical balance.
Densitometric and Morphometric Studies. After 30 days, all rats were anesthetized and killed by exsanguination from the abdominal aorta after being anesthetized with 4 mg/100 g body weight of sodium pentothal. The femur and 5th lumbar vertebra of rat were dissected and placed in an 85° C. water bath to remove soft tissue. Femoral length and vertebral height were measured with a caliper and bones were weighed on a precision balance. The BMC and BMD of the whole right femur and 5th lumbar vertebra were measured using a desitometer equipped with a special program for studying small […] and samples. The instrument was calibrated daily. Because of the influence of weight on bone mass in rate [Rico H, Amo C, Revilla M, Arribas I, Gonzalez-Riola J, Villa L F, Rodriguez-Puyol M Etidronate versus Clodronate in the prevention of postovariectomy bone loss. An experimental study in rats. Clin Exp Rheumatol 1994, 12:301-304] and human beings [Rico H, Revilla M, Villa L F, Alvarez de Buergo M A, Ruiz-Contreras D Determinants of total and regional bone mineral content and density in postpubertal normal women. Metabolism 1994, 43 :263-266], BMC was corrected for final body weight (BMC/BW). The BMC and BMD of the femurs and 5th lumbar vertebra were measured separately.

ovariectomised rats [1] = experiment: Forward locomotion of ovariectomised rats after intravaginal oxytocin gel; assay type: in vivo, rat; design: forward locomotion, Minutes 1-15 / forward locomotion, Minutes 16-30 / forward locomotion, Minutes 1-30 / forward locomotion, Minutes 1-15, AVERAGE / forward locomotion, Minutes 16-30, AVERAGE / forward locomotion, Minutes 1-30, AVERAGE: unit not given here
Experimental: (§1) Female sexually mature Sprague-Dawley rats weighing 250-300 g were used (B & K Universal Sollentuna, Sweden). The rats were housed 5 to each cage with free access to food and tap water at 20±2° C. and with a 12 h light/12 h dark cycle for at least 3 weeks before and throughout the experimental period.
The ovaries of seven female rats were removed. After 2 weeks, the rats were treated with oxytocin gel given intravaginally (conc. 1 mg/ml). […] Most probably, there is an activation of nerves present in the vaginal mucous membrane.
The total experimental time is 30 minutes per rat, and the values in table I show the forward locomotion for the first 15 minutes, for the whole experimental time, and for the last 15 minutes.

ovariectomised rats [2] = experiment: Subcutaneous oxytocin administration to ovariectomised rats, endocrine study; assay type: in vivo, rat; settings: 1 mg/kg subcutaneously during five days
Experimental: as §1
Ovariectomy means removal of an ovary or ovaries and can eg be effected according to Merchentaler, I., Funkhouser, J. M., Carver, J. N, Lundeen, S. G., Ghosh, K, Winneker, R. C. The effect of estrogens and antiestrogens in a rat model for hot flush. Maturitas, Nov 16, 1998; 30(3): 307-316.
In an experimental animal study, eight ovariectomised rats were treated with oxytocin. The ovaries were removed in order to create a menopause-like situation. After a mouth, an endocrine study was made. The “menopausal” rats get a changed hormone balance. Their insulin levels and, to a certain extent their blood sugar levels rise, possibly in consequence of increased insulin resistance. Their cortisol and growth hormone levels decrease, which expresses an inability to mobilise calories for activity. An oxytocin treatment during five days (1 mg/kg given subcutaneously during five days) restored the hormone balance.

[3] = tested on: postmenopausal women with atrophic, ulcerous vaginal mucous membranes; experiment: Intravaginal oxytocin administration to postmenopausal women (seven women, inspection by gynaecologist); assay type: in vivo, human; settings: oxytocin 1 mg/ml mixed with 1 ml cellulose gel intravaginally
Experimental: Seven women at an age of 60-70 years, otherwise completely healthy, with expressed postmenopausal disorders in the form of white, thin, atrophic, easy-bleeding and ulcerous vaginal mucous membranes were included in the study. They were treated with oxytocin 1 mg/ml mixed with 1 ml cellulose gel intravaginally driving five consecutive days,
The treatment was effected by a gynaecologist who inspected the mucous membranes. After a treatment lasting 2-3 days, the mucous membranes had improved in that they looked like those in a female woman.
At the same time, it was observed that the mood of the women was improved. They seemed obviously happy and reported that they felt happy, and many of them had resumed their sex lives.

[4] = tested on: women two years into menopause with vaginal rash, pain and dryness; experiment: Double blind intravaginal oxytocin gel versus cellulose gel in 20 menopausal women, biopsy and interview; assay type: in vivo, human
Experimental: Besides, a further experiment was conducted, wherein 20 women, all of them at two years into menopause and otherwise healthy. None of them underwent hormone replacement therapy. All patients had objective and subjective symptoms of vaginal rash, pain and a feeling of dryness.
Ten patents were treated with oxytocin 1 mg/ml mixed with 1 ml close gel intravaginally during five consecutive days, whereas the remaining ten patients were treated with 1 ml cellulose gel intravaginally dog five consecutive days as control. Before treatment with either control or oxytocin gel we took a biopsy, this procedure was repeated after 5 days of treatment. The protocol was a double blind protocol, ie the microscopic evaluations were performed by the same experienced pathologist before the code was broken.

[5] = tested on: rats with experimentally-induced polycystic ovaries; experiment: Oestradiol valerate induced polycystic ovaries (PCO) in rats, NGF and ovarian morphology; assay type: in vivo, rat; settings: oxytocin 1.0 mg/kg subcutaneously every third day
Experimental: (§2) Virgin adult cycling Sprague-Dawley rats weighing 300-350 g (Example 4) and 190-210 g (Example 5) and with regular 4-day oestrous cycles were used (Möllegaard, Denmark). The rats were housed 4 to each cage with free access to pelleted food and tap water at 22° C. and with a 12 h light/12 h dark cycle for at least 1 week before and throughout the experimental period.
Statistical analyses were carried out using the SPSS 8.0 software. NGF concentrations in the pituitary gland, the hypothalamus, the hippocampus, the ovary, and the adrenal glands were analysed and the groups compared using analyses of variance (ANOVA) followed by multiple comparison procedures Bonferroni test).
All rats (totally 59) received a single intramuscular injection either of oestradiol valerate (EV), oil, or 0.15 M NaCl (Kabi Pharmacia AB, Sweden) and were anaesthetised with enflurane. Twenty rats re injected with 4 mg EV in 0.2 ml oil/rat (ten rats in the control group and ten in the oxytocin treated). They were decapitated after 30 days to elucidate when the ovaries display characteristic features of well-defined PCO (Brawer et al., 1978, Supra; Brawer et al., 1986, supra). The oxytocin treated group received subcutaneous oxytocin 1.0 mg/kg subcutaneously every third day during the experimental period.

ovariectomised rats [6] = experiment: Hot flush model: tail skin temperature after naloxone withdrawal in morphine-addicted ovariectomised rats; assay type: in vivo, rat; settings: vehicle rats 5-6° C. elevation
Experimental: as §2
In this study, ovariectomised rats (300-350 g) were treated with oxytocin for 8 days subcutaneously. Rats were addicted to morphine by implanting a morphine pellet (75 mg each) subcutaneously on days 3 and 5 of treatment. On the last day of treatment, an infrared thermistor was placed above the tail of each animal and morphine addiction was withdrawn by naloxone injection (1.0 mg/kg, subcutaneously). Temperature measurements were taken for 1 h under ketamine (80 mg/kg. intramuscularly) anaesthesia.

ovariectomised rats [7] = experiment: Weight change in ovariectomised rats given subcutaneous oxytocin; assay type: in vivo, rat
Experimental: as §1
A rat having its ovaries removed also gains weight compared to untreated rats.

ovariectomised rats [8] = experiment: Subcutaneous oxytocin combined with hormone treatment in ovariectomised rats, plasma corticosterone and GH; assay type: in vivo, rat; settings: oxytocin 1 mg/kg s.c. five days, FIG. 2
Text: FIG. 2 is a bar graph showing the plasma concentrations of corticosterone and growth hormone (GH) in ovariectomised rats subjected to subcutaneous treatment. Group A refers to rats treated with oestrogen, progesterone, and oxytocin. Group B refers to rats treated with oestragen and progesterone. Group C refers to rats treated with oxytocin. Group D refers to rats treated with saline.
as §1
In another experimental animal study, the effect of oxytocin (1 mg/kg given subcutaneously during five days) combined with hormone treatment was investigated. All treatment groups A-D each contained eight ovariectomised rats. […] Analogously to the insulin levels, the corticosterone and GH levels were normalised (but increased) by oxytocin treatment.

ovariectomised rats [9] = experiment: Tail-flick test in ovariectomised rats after intravaginal oxytocin; assay type: in vivo, rat; settings: tails in water at 51° C.; intravaginal oxytocin versus saline; FIG. 4
Experimental: One way of applying somatic discomfort to an organism is to subject a part of it to a high temperature. This relief effect of oxytocin was investigated in a tail-flick test. In this test the tails of ovariectomised rats were immersed in water at 51° C. With reference to FIG. 4, the latency time from the immersion of the tails to the withdrawal thereof were measured for rats treated with oxytocin (▴) and rats treated with saline (□). For each group of rats, the test sessions were accomplished three times with a period of 15 minutes between the sessions. […] A longer latency time means that the rat could stand the somatic discomfort better such as increased temperature ta it otherwise would do.

[10] = ovariectomized rats, oxytocin 1.0 mg/kg sc for 10 days, after 30 days, mean ± SD
[11] = individual rats R1-R7, oxytocin gel 1 mg/ml intravaginally

Molecule: oxytocin
- F-BMC (femur bone mineral content) (ovariectomized rats; [10]): 335 ± 37 mg
- F-BMC/BW (femur BMC corrected for final body weight) (ovariectomized rats; [10]): 1.12 ± 0.09 mg/g
- F-BMD (femur bone mineral density) (ovariectomized rats; [10]): 131 ± 18 mg/cm^2
- Femur (femoral length) (ovariectomized rats; [10]): 35.5 ± 1.3 mm
- Femur (weight) (ovariectomized rats; [10]): 712 ± 42 mg
- V-BMC (5th lumbar vertebral bone mineral content) (ovariectomized rats; [10]): 110 ± 16 mg
- V-BMD (5th lumbar vertebral bone mineral density) (ovariectomized rats; [10]): 107 ± 13 mg/cm^2
- Vertebra (5th lumbar vertebra weight) (ovariectomized rats; [10]): 273 ± 32 mg
- Vertebra (5th lumbar vertebral height) (ovariectomized rats; [10]): 6.9 ± 0.6 mm
- Final weight (ovariectomized rats; ovariectomized rats, oxytocin 1.0 mg/kg sc for 10 days, after 30 days, mean ± SD, 15 rats): 334 ± 31 g
- bone loss in ovariectomized rats (ovariectomized rats; oxytocin treatment for 10 days): suppresses bone loss
- forward locomotion, Minutes 1-30, AVERAGE (ovariectomised rats [1]; average of 7 rats (SD 1.36), control average 24.71, T-test 0.03*): 26.91
- forward locomotion, Minutes 1-15, AVERAGE (ovariectomised rats [1]; average of 7 rats (SD 1.81), control average 27.10, T-test 0.04*): 30.20
- forward locomotion, Minutes 16-30, AVERAGE (ovariectomised rats [1]; average of 7 rats (SD 2.86), control average 18.33, T-test 0,44 ns): 20.13
- forward locomotion, Minutes 1-30 (ovariectomised rats [1]; [11]): 27.7 (2×) and 25.3 and 25.1 and 26.3 and 28.7 and 27.6
- forward locomotion, Minutes 16-30 (ovariectomised rats [1]; [11]): 20.3 and 19.8 and 17.7 and 23.2 and 21.6 and 15.3 and 23
- forward locomotion, Minutes 1-15 (ovariectomised rats [1]; individual rats R1-R7, oxytocin gel 1 mg/ml intravaginally, two days after completed treatment): 30.7 and 27.8 and 28.8 and 28.6 and 32.2 and 32.3 and 31
- behaviour changes (motor activity such as forward locomotion) (ovariectomised rats [1]; two days after completed intravaginal treatment, compared to gel without oxytocin): increased motor activity
- blood sugar levels (ovariectomised rats [2]; compared to NaCl controls): normalised
- plasma insulin levels (ovariectomised rats [2]; compared to control rats treated with NaCl, FIG. 1): normalised ie lowered
- mood of the women [3]: improved
- treatment time until mucous membranes had improved [3]: 2 to 3 days
- ulcers of vaginal mucous membranes ([3]; after 2-3 days): all ulcers had disappeared
- state of vaginal mucous membranes on inspection ([3]; five consecutive days, seven women 60-70 years): improved
- inflammation in histology (biopsy) ([4]; after 5 days of treatment): no or a lesser degree of inflammation
- histology of vaginal epithelium (biopsy) ([4]; after 5 days of treatment, except cases with normal epithelium before treatment): normalization of the epithelium
- subjective relief in interviews ([4]; oxytocin 1 mg/ml in 1 ml gel intravaginally, five days, ten patients, versus cellulose gel control): expressed relief
- concentrations of NGF in the ovaries ([5]; 30 days, compared to non-oxy-treated PCO rats): significantly lower
- ovarian morphology (PCO changes) ([5]; versus EV control group): significantly less changes
- tail skin temperature increase (flashes) after naloxone (ovariectomised rats [6]; repeated oxytocin 1.0 mg/kg subcutaneous for 8 days): significantly inhibited
- food intake (ovariectomised rats [7]; oxytocin for 10 days): do not eat less
- weight gain after ovariectomy (ovariectomised rats [7]; oxytocin for 10 days subcutaneously, versus saline controls, FIG. 3): do not gain weight as much
- plasma GH levels (ovariectomised rats [8]; compared with saline treated rats, eight rats per group): significantly higher
- plasma corticosterone levels (ovariectomised rats [8]; compared with rats treated with oestrogen+progesterone): significantly higher
- tail-flick latency time (immersion to withdrawal) (ovariectomised rats [9]): increases the latency time

Molecule: C#C[C@]1(O)CC[C@H]2[C@@H]3CCc4cc(O)ccc4[C@H]3CC[C@@]21C [17-alpha-ethinyloestradiol]
- tail skin temperature increase (flashes) after naloxone (ovariectomised rats [6]; 0.1 m g subcutaneous): significantly inhibited
